# From patent US12146874B2, “Microtentacle imaging in patient tumor samples” (University of Maryland, Baltimore, priority 2014, dated 2024)
# Legend:
# [1] = system: fresh patient tumor cells and tumorgrafts; assay: McTN drug response of fresh patient samples and tumorgrafts in the microfluidic device (Aim 3b); conditions: concentration listed in Table 4, 60 minutes, media exchange in microfluidic channels
# Method: An automated microscope stage will collect images from each channel every 5 minutes across the one hour drug treatment.
# Strategy and Analysis: The device prioritized from subaim 2a will be used to analyze fresh patient samples as well as the resulting tumorgrafts from 40 patients during the three years of the project. McTN images collected from each cell sample will be analyzed with a custom MatLab algorithm developed for this assay that can automatically identify McTNs but also score metrics that were previously not possible to measure, such as the average number of McTNs per cell (FIG. 12). […] Drugs will be added by media exchange across the six microfluidic channels at the concentrations listed in Table 4 for 60 minutes, which each affect McTNs in 1 hr.
# MDA-436 cells = assay: Automated McTN analysis by confocal microscopy; assay type: cell-based; conditions: at least 10 random cells
# Source text: FIG. 24. Automated McTN analysis. […] A gradient vector flow snake algorithm was used to define the cell edges and a local curvature maxima effectively identified McTN ends (yellow diamonds). […] This automated cell shape analysis will also enable calculations of average McTN length, curvature, etc. that will yield more multi-dimensional data for McTN studies.
# patient-derived cells = assay: McTN and stem cell responses of patient-derived cells to drugs (Example 4); assay type: cell-based, human; conditions: concentration listed in Table 2, 30 minutes, vs vehicle 0.1% DMSO
# Method: Patient-derived cells are treated with either vehicle (0.1% DMSO) or each of the drugs in Table 2 at the indicated concentration for 30 minutes and then analyzed for McTN incidence.
# [2] = system: nonmetastatic SkBr3 cells; assay: McTN scoring in detached SkBr3 cells, confocal microscopy for tubulin localization; assay type: cell-based, Human; conditions: Jas 500 nM, Taxol 1.2 μM, McTNs scored blindly, 3 expts
# Source text: FIG. 4. Targeting cell division can increase McTNs. […] (Bars=mean+S.D from 3 expts. with McTNs scored blindly).
# Genetic alterations and chemotherapies that stabilize tubulin can increase McTNs. Actin-disrupting drugs, such as jasplakinolide (Jas) are currently being developed as therapies to reduce tumor cell division and migration (Takeuchi H, Ara G, Sausville E A, Teicher B (1998). Jasplakinolide: interaction with radiation and hyperthermia in human prostate carcinoma and Lewis lung carcinoma. Cancer chemotherapy and pharmacology 42: 491-496). […] Dissemination and growth of cancer cells in metastatic sites. […] We have published that genetic alterations which promote McTNs (FIG. 2B) increase CTC lung retention in living mice (Balzer E M, Whipple R A, Thompson K, Boggs A E, Slovic J, Cho E H et al (2010). c-Src differentially regulates the functions of microtentacles and invadopodia. Oncogene 29: 6402-6408; Matrone M A, Whipple R A, Thompson K, Cho E H, Vitolo M I, Balzer E M et al (2010). Metastatic breast tumors express increased tau, which promotes microtentacle formation and the reattachment of detached breast tumor cells. Oncogene 29: 3217-3227).
structure (smiles),measurement,setting,value
COc1cc2c(c(OC)c1OC)-c1ccc(OC)c(=O)cc1[C@@H](NC(C)=O)CC2 [Colchicine],Predicted stemness & McTN effect,[1],Decrease
same,average number of McTNs per cell,MDA-436 cells; colchicine 50 μM vs vehicle 0.1% DMSO,significantly reduces the average number of McTNs per cell
same,Predicted stemness & McTN effect,patient-derived cells,Decrease
C=C1C(=O)O[C@@H]2/C=C(\C)CC/C=C(\C)CC[C@@H]12 [Costunolide],Predicted stemness & McTN effect,patient-derived cells,Decrease
COc1cc(/C=C/C(=O)CC(=O)/C=C/c2ccc(O)c(OC)c2)ccc1O [Curcumin],Predicted stemness & McTN effect,[1],Decrease
CC(=O)O[C@@]12CO[C@@H]1C[C@H](O)[C@@]1(C)C(=O)[C@H](O)C3=C(C)[C@@H](OC(=O)[C@H](O)[C@@H](NC(=O)OC(C)(C)C)c4ccccc4)C[C@@](O)([C@@H](OC(=O)c4ccccc4)[C@H]21)C3(C)C [Docetaxel],Predicted stemness & McTN effect,patient-derived cells,Increase
O=S(=O)(c1cccc2cnccc12)N1CCCNCC1 [Fasudil],Predicted stemness & McTN effect,patient-derived cells,Increase
C/C(=C\c1csc(C)n1)[C@@H]1C[C@@H]2O[C@]2(C)CCC[C@H](C)[C@H](O)[C@@H](C)C(=O)C(C)(C)[C@@H](O)CC(=O)N1 [Ixabepilone],Predicted stemness & McTN effect,[1],Increase
same,Predicted stemness & McTN effect,patient-derived cells,Increase
"C/C1=C\[C@H](C)C[C@H](C)OC(=O)C[C@H](c2ccc(O)cc2)NC(=O)[C@@H](Cc2c(Br)[nH]c3ccccc23)N(C)C(=O)[C@H](C)NC(=O)[C@@H](C)C1 [Jazplakinolide, Jasplakinolide]",levels of McTNs,[2],strongly promote McTNs
same,levels of McTNs,[2]; listed as Jas,increases levels of McTNs dramatically
same,Predicted stemness & McTN effect,patient-derived cells,Decrease
O=S(=O)(c1cccc2c(I)cccc12)N1CCCNCC1 [ML-7],Predicted stemness & McTN effect,patient-derived cells,Decrease
CC(=O)O[C@H]1C(=O)[C@@]2(C)[C@H]([C@H](OC(=O)c3ccccc3)[C@]3(O)C[C@H](OC(=O)[C@H](O)[C@@H](NC(=O)c4ccccc4)c4ccccc4)C(C)=C1C3(C)C)[C@]1(OC(C)=O)CO[C@@H]1C[C@@H]2O [Paclitaxel],Predicted stemness & McTN effect,[1],Increase
same,levels of McTNs,[2],strongly promote McTNs
same,levels of McTNs,[2]; listed as Paclitaxel-Taxol,increases levels of McTNs dramatically
same,average number of McTNs per cell,MDA-436 cells; paclitaxel 1 μM vs vehicle 0.1% DMSO,"increases McTNs, but this does not reach significance"
same,Predicted stemness & McTN effect,patient-derived cells,Increase
CN(C)S(=O)(=O)c1ccc2c(c1)/C(=C/c1cc3c([nH]1)CCCC3)C(=O)N2 [SU6656],Predicted stemness & McTN effect,patient-derived cells,Increase
CC[C@]1(O)C[C@@H]2CN(CCc3c([nH]c4ccccc34)[C@@](C(=O)OC)(c3cc4c(cc3OC)N(C)[C@H]3[C@@](O)(C(=O)OC)[C@H](OC(C)=O)[C@]5(CC)C=CCN6CC[C@]43[C@@H]65)C2)C1 [Vinblastine],Predicted stemness & McTN effect,[1],Decrease
same,Predicted stemness & McTN effect,patient-derived cells,Decrease
C[C@@H](N)[C@H]1CC[C@H](C(=O)Nc2ccncc2)CC1 [Y-27632],Predicted stemness & McTN effect,patient-derived cells,Increase
